# Laboratory results reported in paper PMC6268642, “Facile Synthesis and Herbicidal Evaluation of 4H-3,1-Benzoxazin-4-ones and 3H-Quinazolin-4-ones with 2-Phenoxymethyl Substituents” (Molecules, 2012).
# Like-named read-outs stand apart in the source and are kept apart here.
# Legend:
# [1] = tested on: barnyard grass Echinochloa crusgalli; assay: Petri dish culture, growth inhibition of root and stalk of barnyard grass; format: in vivo; conditions: 5 days; for inhibition at 1 µg/mL / inhibition at 10 µg/mL: Echinochloa crus-galli, 120 h
# Protocol: (§1) The synthesized compounds were tested for the herbicidal activity on model plants including a monocotyledon (barnyard grass) and a dicotyledon (rape) by the reported Petri dish culture method. The percent inhibitory ratios against the growth of root and stalk of barnyard grass and rape at different dosage concentrations were calculated, and the compounds with appreciable inhibitory potencies are selected and shown in Table 1 and Table 2. Several features of the inhibitory activities can be derived. First, all the compounds have stronger inhibition against the growth of the dicotyledon rape than against the monocotyledon barnyard grass, showing appreciable selectivity.
# (§2) The herbicidal activity was examined for the growth inhibition effect of the dicotyledon rape Brassica napus and the monocotyledon barnyard grass Echinochloa crusgalli, using the standard Petri dish test and the pre-emergence treatment procedure. […] Nine mL of the solution was added in a Petri dish of 9 cm diameter and two pieces of filter paper were placed on the dish bottom. Twenty seeds each of rape and barnyard grass were placed on the filter paper. The covered Petri dish was transferred into an artificial climate incubator (MGC-400H, Shantou Keyi Co., Ltd., China), where the conditions were controlled at temperature 23 ± 1 °C, humidity 60 ± 5%, light intensity 10 Klux, and photoperiod 12 h/day. The incubation was continued for 5 days, then the lengths of 10 roots and 10 stems for each type of plant were measured and the mean values were calculated. The percent inhibitory ratios were calculated relative to control plants exposing to distilled water instead of the compound solution.
# rape Brassica napus = assay: Petri dish culture, growth inhibition of root and stalk of rape; format: in vivo; conditions: 5 days; for inhibition at 1 µg/mL / inhibition at 10 µg/mL: Brassica napus, 120 h
# Protocol: as §1, §2
# [2] = 1 mg/L, root growth, read-out: Relative inhibition, root
# [3] = 1 mg/L, stalk growth, read-out: Relative inhibition, stalk
# [4] = 10 mg/L, root growth, read-out: Relative inhibition, root
# [5] = 10 mg/L, stalk growth, read-out: Relative inhibition, stalk
Compound,"Relative inhibition, root ([1]; 1 mg/L, root growth) [%]","Relative inhibition, stalk ([1]; 1 mg/L, stalk growth) [%]","Relative inhibition, root ([1]; 10 mg/L, root growth) [%]","Relative inhibition, stalk ([1]; 10 mg/L, stalk growth) [%]","Relative inhibition, root (rape Brassica napus; 1 mg/L, root growth) [%]","Relative inhibition, stalk (rape Brassica napus; 1 mg/L, stalk growth) [%]","Relative inhibition, root (rape Brassica napus; 10 mg/L, root growth) [%]","Relative inhibition, stalk (rape Brassica napus; 10 mg/L, stalk growth) [%]","inhibition at 1 µg/mL [1, 2] [%]","inhibition at 1 µg/mL [1, 3] [%]","inhibition at 10 µg/mL [1, 4] [%]","inhibition at 10 µg/mL [1, 5] [%]",inhibition at 1 µg/mL (rape Brassica napus; [2]) [%],inhibition at 1 µg/mL (rape Brassica napus; [3]) [%],inhibition at 10 µg/mL (rape Brassica napus; [4]) [%],inhibition at 10 µg/mL (rape Brassica napus; [5]) [%],melting point [°C]
"7-Chloro-2-((2,4-dichlorophenoxy)methyl)-3-methyl-3H-quinazolin-4-one [4r]",12.3,1.4,34.6,0.0,32.3,−8.8,44.5,−2.4,–,–,–,–,–,–,–,–,–
"O=c1oc(COc2ccccc2)nc2ccccc12 [3a, 2-(Phenoxymethyl)-4H-3,1-benzoxazin-4-one]",–,–,–,–,–,–,–,–,19.3,-29.6,64.8,26.9,71.2,27,89.1,79.4,87.9 to 92.1
"O=c1oc(COc2ccccc2)nc2cccc(Cl)c12 [3b, 5-Chloro-2-(phenoxymethyl)-4H-3,1-benzoxazin-4-one]",–,–,–,–,–,–,–,–,47.2,0.5,56.3,24.1,59.6,39.2,83.3,51.9,118.3 to 120.9
"O=c1oc(COc2ccccc2)nc2ccc(Cl)cc12 [3c, 6-Chloro-2-(phenoxymethyl)-4H-3,1-benzoxazin-4-one]",–,–,–,–,–,–,–,–,23.7,0.3,62.6,46.7,45.4,26.7,83.9,64.6,113.1 to 115.2
"O=c1oc(COc2ccccc2)nc2cc(Cl)ccc12 [3d, 7-Chloro-2-(phenoxymethyl)-4H-3,1-benzoxazin-4-one]",–,–,–,–,–,–,–,–,41.9,-23.6,62.3,28.3,75.5,44.9,93.5,71.6,117.3 to 119.9
"Cc1ccc2nc(COc3ccccc3)oc(=O)c2c1 [3e, 6-Methyl-2-(phenoxymethyl)-4H-3,1-benzoxazin-4-one]",–,–,–,–,–,–,–,–,26.1,-17.2,71.4,31.1,55.3,11.6,92.3,81.6,133.3 to 135.1
"COc1cc2nc(COc3ccccc3)oc(=O)c2cc1OC [3f, 6,7-Dimethoxy-2-(phenoxymethyl)-4H-3,1-benzoxazin-4-one]",–,–,–,–,–,–,–,–,35.5,32,63,46.7,94.9,32.9,71.1,63.3,132.1 to 134.3
"O=c1oc(COc2ccc(Cl)cc2)nc2cc(Cl)ccc12 [3j, 7-Chloro-2-((4-chlorophenoxy)methyl)-4H-3,1-benzoxazin-4-one]",–,–,–,–,–,–,–,–,43.6,12.8,92.3,31.1,91.4,59.5,100,91.1,189.9 to 191.8
"Cc1ccc2nc(COc3ccc(Cl)cc3)oc(=O)c2c1 [3k, 2-((4-Chlorophenoxy)methyl)-6-methyl-4H-3,1-benzoxazin-4-one]",–,–,–,–,–,–,–,–,48.4,18.2,77.1,-8.8,84.7,29.3,100,82.1,143.7 to 145.6
